Measurements from patent US20040033901A1, “Uses for cellulose-containing aggregates” (priority 1994, published 2004).

Tested on: termites
Assay: field test of termite attack on a weighted board on a one inch bed of aggregates
Format: in vivo
Details: one inch thick bed on ground surface in termite-infested area, after one year
Source text: In a field test, a one inch thick bed of aggregates containing either 0.1% Deltamethrin, 0.001% Deltamethrin, or no Deltamethrin were positioned on ground surface in an area known to be infested with termites and a weighted board was positioned on the top of the bed. […] Thus, at least for Deltamethrin, a toxin level of 0.001 wt % appears both effective and long lived.

## CC1(C)[C@H](C(=O)O[C@H](C#N)c2cccc(Oc3ccccc3)c2)[C@@H]1C=C(Br)Br [Deltamethrin]
Aggregates containing 0.001% Deltamethrin
  protection of board from termite attack: totally protected
Aggregates containing 0.1% Deltamethrin
  protection of board from termite attack: totally protected
